Results from the NIST ThermoML archive (doi:10.1016/j.jct.2019.02.011).

Test: xn = mol fraction of the nth substance listed
Details: Liquid, Vibrating tube method

COC(=O)OC [dimethyl carbonate] + CO
mass density [kg/m3]
Details	100 kPa	5000 kPa	10000 kPa	15000 kPa	20000 kPa	25000 kPa	30000 kPa	35000 kPa	40000 kPa
293.15 K, x1 = 0.0253	–	–	–	819.01	822.93	826.85	830.45	833.84	837.02
293.15 K, x1 = 0.0503	–	–	–	832.64	836.57	840.49	844.1	847.49	850.69
293.15 K, x1 = 0.0745	–	–	–	845.15	849.09	853.02	856.63	860.04	863.25
293.15 K, x1 = 0.101	–	–	–	858.22	862.17	866.1	869.72	873.13	876.36
293.15 K, x1 = 0.1502	–	–	–	880.67	884.64	888.56	892.2	895.68	898.94
293.15 K, x1 = 0.2059	–	–	–	903.9	907.88	911.86	915.51	919	922.29
293.15 K, x1 = 0.25	–	–	916.63	920.72	924.71	928.69	932.36	935.81	939.11
293.15 K, x1 = 0.3004	–	–	934.21	938.3	942.31	946.29	949.97	953.48	956.8
293.15 K, x1 = 0.3426	–	–	947.86	951.96	955.98	959.96	963.65	967.16	970.51
293.15 K, x1 = 0.3984	–	–	964.54	968.64	972.68	976.66	980.36	983.88	987.25
293.15 K, x1 = 0.4514	–	–	979.07	983.17	987.22	991.16	994.86	998.4	1001.78
293.15 K, x1 = 0.5054	–	–	992.67	996.78	1000.83	1004.77	1008.44	1011.98	1015.38
293.15 K, x1 = 0.5509	–	–	1003.27	1007.38	1011.44	1015.38	1019.05	1022.6	1026.01
293.15 K, x1 = 0.6002	–	–	1013.92	1018.04	1022.11	1026.05	1029.73	1033.28	1036.7
293.15 K, x1 = 0.6469	–	–	1023.3	1027.41	1031.49	1035.43	1039.12	1042.68	1046.11
293.15 K, x1 = 0.6993	–	–	1033.07	1037.19	1041.28	1045.22	1048.91	1052.48	1055.92
293.15 K, x1 = 0.7496	–	–	1041.86	1045.98	1050.08	1054.02	1057.72	1061.24	1064.69
293.15 K, x1 = 0.799	–	–	1050.01	1054.09	1058.13	1062.08	1065.78	1069.31	1072.77
293.15 K, x1 = 0.837	–	–	1055.93	1060.01	1064.06	1068.01	1071.71	1075.29	1078.71
293.15 K, x1 = 0.9093	–	–	1066.58	1070.66	1074.72	1078.67	1082.38	1085.91	1089.35
293.15 K, x1 = 0.9239	–	–	1068.62	1072.7	1076.76	1080.71	1084.42	1087.96	1091.39
293.15 K, x1 = 0.9575	–	–	1073.25	1077.33	1081.4	1085.34	1089.06	1092.6	1096.04
293.15 K, x1 = 0.9861	–	–	1077.09	1081.17	1085.23	1089.18	1092.9	1096.44	1099.94
293.15 K, x1 = 1	–	–	1078.93	1083.01	1087.08	1091.03	1094.75	1098.34	1101.84
298.15 K, x1 = 0.0253	801.12	805.88	810.17	814.5	818.56	–	–	–	–
298.15 K, x1 = 0.0503	814.67	819.42	823.72	828.05	832.13	–	–	–	–
298.15 K, x1 = 0.0745	827.15	831.91	836.21	840.55	844.63	–	–	–	–
298.15 K, x1 = 0.101	840.09	844.85	849.21	853.54	857.59	–	–	–	–
298.15 K, x1 = 0.1502	862.34	867.1	871.47	875.8	879.93	–	–	–	–
298.15 K, x1 = 0.2059	885.36	890.12	894.5	898.84	902.99	–	–	–	–
298.15 K, x1 = 0.25	902	906.75	911.19	915.53	919.64	–	–	–	–
298.15 K, x1 = 0.3004	919.49	924.24	928.68	933.03	937.16	–	–	–	–
298.15 K, x1 = 0.3426	933.01	937.77	942.22	946.56	950.71	–	–	–	–
298.15 K, x1 = 0.3984	949.56	954.26	958.77	963.12	967.28	–	–	–	–
298.15 K, x1 = 0.4514	964.01	968.71	973.22	977.52	981.7	–	–	–	–
298.15 K, x1 = 0.5054	977.58	982.28	986.75	991.05	995.2	–	–	–	–
298.15 K, x1 = 0.5509	988.15	992.8	997.28	1001.58	–	–	–	–	–
298.15 K, x1 = 0.6002	998.73	1003.39	1007.87	1012.12	–	–	–	–	–
298.15 K, x1 = 0.6469	1008.04	1012.69	1017.17	1021.43	–	–	–	–	–
298.15 K, x1 = 0.6993	1017.79	1022.44	1026.93	1031.19	–	–	–	–	–
298.15 K, x1 = 0.7496	1026.56	1031.16	1035.66	1039.91	–	–	–	–	–
298.15 K, x1 = 0.799	1034.65	1039.25	1043.74	1047.95	–	–	–	–	–
298.15 K, x1 = 0.837	1040.55	1045.15	1049.65	1053.86	–	–	–	–	–
298.15 K, x1 = 0.9093	1051.17	1055.73	1060.23	1064.44	–	–	–	–	–
298.15 K, x1 = 0.9239	1053.21	1057.76	1062.27	1066.48	–	–	–	–	–
298.15 K, x1 = 0.9575	1057.78	1062.33	1066.84	1071.05	–	–	–	–	–
298.15 K, x1 = 0.9861	1061.61	1066.16	1070.67	1074.88	–	–	–	–	–
298.15 K, x1 = 1	1063.45	1068	1072.51	1076.72	–	–	–	–	–
